Data as given in patent US20070190068A1, “uPAR-binding molecule-drug conjugates and uses thereof” (priority 2005, published 2007).

Tested on: MDA-231 GFP tumors
Assay: Human breast carcinoma MDA-MB-231 GFP xenograft in nude mice (tumor volume)
Format: in vivo, BALB/c (nu/nu) mice
Conditions: week 14
Description: FIG. 5. Preliminary dose defining study. Effect of anti-human uPAR IgG (Mab 3936), doxorubicin, Mab 3936-Doxorubicin conjugate on xenograft human breast cancer tumor model in nude mice (MDA-231 GFP tumors). Tumor volume (mm^3) from week 8 to week 11 post tumor cell inoculation were compared. Bar graph from left to right: animals received control serum, doxorubicin via intravenous (DOX I.V.), doxorubicin via […] (DOX I.P.), Mab 3936 (3936) or Mab 3936-doxorubicin conjugate (3936+DOX) (2 mg/animal).
FIG. 6. Effect of anti-human uPAR IgG (Mab 3936), doxorubicin, Mab 3936-doxorubicin conjugate on xenograft human breast cancer tumor model in nude mice (MDA-231 GFP tumors). Tumor volume (mm^3) from week 5 to week 15 post tumor cell inoculation were compared. Bar graph from left to right: animals received control serum, doxorubicin via intravenous, Mab 3936, doxorubicin via […], and Mab 3936-doxorubicin conjugate.
FIG. 7. […]
For xenograft studies, 4 to 6 weeks old BALB/c (nu/nu) female mice were obtained from Charles River Inc. The mice weighed an average of 20 grams. […] The tumor mass was measured in two dimensions with calipers, twice a week.
Throughout the course of these studies, all control and experimental mice were monitored for any noticeable side effects. […]

## COc1cccc2c1C(=O)c1c(O)c3c(c(O)c1C2=O)C[C@@](O)(C(=O)CO)C[C@@H]3O[C@H]1C[C@H](N)[C@H](O)[C@H](C)O1 [doxorubicin]
  tumor volume: 330 mm^3
